Reference: US7491819B1 (priority 2004, dated 2009)
Where two headings read alike, the source gives them in different places.

Test system: HIV-1 303B
Experiment: microbe, parasite or virus in culture
Format: cell-based
Conditions: for overall antiviral effect of the two-drug combination with Example 19 (in words): classification from combination indices and confidence intervals; for Combination Indices at 50% HIV Inhibition (Confidence Interval) / Combination Indices at 75% HIV Inhibition (Confidence Interval) / Combination Indices at 90% HIV Inhibition (Confidence Interval): in combination with Example 19, 95% CI in parenthesis
Procedure: Virus and cell lines. The T-cell line, MT-2, was obtained through the AIDS Research and Reference Reagent Program. MT-2 cells were sub-cultured twice a week in RPMI 1640 medium supplemented with 10% fetal bovine serum, 2 mM L-glutamine, and 10 mM HEPES buffer pH 7.5. The HIV-1303B virus is a molecular clone derived from the NL4-3 strain of HIV-1 that was obtained from the NIH AIDS Research and Reference Reagent Program. For combinations with enfuvirtide, the NL36G virus was used. […] Virus stocks were made by transfecting 293T cells with a proviral DNA clone using LipofectAMINE PLUS (Invitrogen), according to the manufacturer's instructions. Three days post-transfection, virus was harvested and passaged once in MT-2 cells before titration in MT-2 cells.
Chemicals. Example 19, atazanavir, didanosine, stavudine, efavirenz, and enfuvirtide (T-20) were synthesized by Bristol-Myers Squibb using published or known reactions. […] Tenofovir was tested as tenofovir disopoxil fumarate. Zidovudine and zalcitabine were purchased from Sigma, and emtricitabine from Moravek Biochemicals.
Drug Susceptibility and Cytotoxicity Assays. For drug susceptibility assays, MT-2 cells were infected with HIV-1 303B (or NL36G), at an MOI of 0.001, and seeded into 96-well microtiter plates (2.5×10^5 cells/ml) containing serial dilutions of test compounds. […] Each drug ratio consisted of an array of 3-fold serial dilutions, and was performed with eight or more replicas on separate multi-well plates. HIV infected cells were incubated at 37° C. in 5% CO2, and on day five post-infection, the extent of virus replication was measured by determining cell viability using the CellTiter 96 Aqueous Non-Radioactive Cell Proliferation Assay (Promega). […] Cytotoxicity assays were performed in parallel with the combination experiments. Here, uninfected cells were exposed to the same drug combinations, and assayed after five days for cell viability using the MTS assay.
Analysis of Drug Combination Effects. For determination of combination index (CI) values, drugs were diluted in a fixed ratio and multiple ratios were analyzed. The drug serial dilutions spanned a range of concentrations near the EC50 value of each compound, so that equivalent antiviral activities could be compared. The normalized responses from each therapy are fit to the four-parameter logistic model with a common minimum and maximum across all therapies. Conceptually, this equation can be written as
In this equation, Fa stands for “fraction affected,” and represents the fraction of the viral load that has been inactivated. […] The EC50, represented by the Ci in the above equation, is the drug concentration that is expected to reduce the amount of virus by 50%, and the Bi are the parameters that reflects the slope of the concentration-response curve. For this assay, A is the bottom plateau common to all curves, D is the common top plateau, Bj is the “slope” parameter for the jth therapy, and Cj is the concentration that produces an effect equal to the average of A and D for the jth therapy. Therapies 1 and 2 correspond to mono therapies 1 and 2, respectively. Therapies 3, 4, and 5 correspond to the three combination therapies. EC50 values for each drug were determined from the single drug experiments, using the above equation. The equation was fit using a nonlinear regression routine (Proc Nlin) in PC SAS version 8.2 (SAS Institute Inc.).
To assess antiviral effects of different drug combination treatments, combination indices (CIs) were calculated according to Chou and Rideout. The combination index was computed as
In this equation [Dm]1 and [Dm]2 are the concentrations of drugs that would individually produce a specific level of effect, while [D]1 and [D]2 are the concentrations of drugs in combination that would produce the same level of effect.
Theoretically, additivity is implied if the CI is equal to one, synergy if the CI is less than one, and antagonism if the CI is greater than one.

[1] = Human immunodeficiency virus 1, MT2, 120 h
[2] = EC50 ratio Example 19:comparator 1:1
[3] = EC50 ratio Example 19:comparator 1:2.5
[4] = EC50 ratio Example 19:comparator 2.5:1

SMILES | EC50 [1] [nM] | overall antiviral effect of the two-drug combination with Example 19 (in words) | Combination Indices at 50% HIV Inhibition (Confidence Interval) [2] | Combination Indices at 75% HIV Inhibition (Confidence Interval) [2] | Combination Indices at 90% HIV Inhibition (Confidence Interval) [2] | Combination Indices at 50% HIV Inhibition (Confidence Interval) [3] | Combination Indices at 75% HIV Inhibition (Confidence Interval) [3] | Combination Indices at 90% HIV Inhibition (Confidence Interval) [3] | Combination Indices at 50% HIV Inhibition (Confidence Interval) [4] | Combination Indices at 75% HIV Inhibition (Confidence Interval) [4] | Combination Indices at 90% HIV Inhibition (Confidence Interval) [4] | EC50 (single drug, MT-2 cells, MOI 0.001, day five, MTS cell viability, read-out: EC50) [nM]
Cc1cn([C@H]2C=C[C@@H](CO)O2)c(=O)[nH]c1=O [Stavudine, stavudine] | 241 | synergistic | 0.52 (0.43, 0.61) | 0.46 (0.36, 0.56) | 0.42 (0.26, 0.57) | 0.60 (0.48, 0.71) | 0.60 (0.46, 0.74) | 0.61 (0.40, 0.83) | 0.70 (0.57, 0.84) | 0.63 (0.48, 0.79) | 0.58 (0.37, 0.81) | –
Cc1cccc(C)c1OCC(=O)N[C@@H](Cc1ccccc1)[C@@H](O)C[C@H](Cc1ccccc1)NC(=O)[C@H](C(C)C)N1CCCNC1=O [Lopinavir, lopinavir] | 17 | additive relationship with Example 19 cannot be ruled out | 0.74 (0.67, 0.82) | 0.77 (0.66, 0.88) | – | 0.77 (0.66, 0.88) | 0.56 (0.36, 0.75) | 0.41 (0.19, 0.64) | 0.76 (0.69, 0.83) | 0.62 (0.55, 0.70) | 0.54 (0.47, 0.61) | –
CC(C)Nc1cccnc1N1CCN(C(=O)c2cc3cc(NS(C)(=O)=O)ccc3[nH]2)CC1 [Delavirdine, delavirdine] | 43 | – | 0.76 (0.64, 0.89) | 0.60 (0.47, 0.74) | 0.48 (0.31, 0.64) | 0.68 (0.58, 0.77) | 0.44 (0.32, 0.54) | 0.28 (0.17, 0.39) | 0.80 (0.68, 0.92) | 0.53 (0.42, 0.63) | 0.35 (0.25, 0.45) | –
C[C@H](Cn1cnc2c(N)ncnc21)OCP(=O)(O)O [Tenofovir, tenofovir] | – | synergistic to additive | 0.66 (0.57, 0.75) | 0.54 (0.45, 0.62) | 0.43 (0.33, 0.53) | 0.68 (0.59, 0.77) | 0.60 (0.48, 0.72) | 0.52 (0.36, 0.69) | 0.90 (0.77, 1.04) | 0.84 (0.67, 1.01) | 0.79 (0.55, 1.03) | 18
O=c1[nH]cnc2c1ncn2[C@H]1CC[C@@H](CO)O1 [Didanosine, didanosine] | 10700 | synergistic | 0.58 (0.53, 0.63) | 0.47 (0.35, 0.60) | 0.39 (0.22, 0.56) | 0.56 (0.51, 0.62) | 0.46 (0.40, 0.52) | 0.38 (0.32, 0.44) | 0.50 (0.46, 0.54) | 0.49 (0.44, 0.53) | 0.48 (0.42, 0.54) | –
